# According to US11420947B2, “(S)-n-hydroxy-2-(2-(4-methoxyphenyl)butanamido)thiazole-5-carboxamide and pharmaceutically acceptable salts thereof” (TRANSLATIONAL DRUG DEVELOPMENT, LLC, priority 2018, dated 2022):
# pIC50: −log10 of the molar value.
# How the values were obtained:
# Test in all cases: CellTiter-Glo cell viability assay
# Assay type in all cases: cell-based
# Capan-2 = conditions: for pIC50: Homo sapiens, Capan-2, PANCREAS, Pancreatic, 72 hours
# Description: (§1) Cell viability in the presence of varying concentrations of the above listed compounds at different time points was used to assess cytotoxicity and the effect of the compounds on cell proliferation.
# (§2) Cell viability was measured by the CellTiter-Glo® cell viability assay from Promega (Madison, Wis.). The CellTiter-Glo® Luminescent Cell Viability Assay is a homogeneous method to determine the number of viable cells in culture based on quantitation of the ATP present, which signals the presence of metabolically active cells. Following treatment, CellTiter-Glo® is added to treatment wells and incubated at 37° C. luminescence values were measured at using a Molecular Devices Spectramax microplate reader
# (§3) Cells were grown to 70% confluency, trypsinized, counted, and seeded in 96 well flat-bottom plates at a final concentration of 2.5×10^3-5×10^3 cells/well (Day 0). Cells were allowed to incubate in growth media for 24 hours. Treatment with the test agents or standard agents began on Day 1 and continued for 72 hours. At the 72-hour timepoint, treatment containing media was removed. Viable cell numbers are quantified by the CellTiter-Glo® cell viability assay as described above. Results from these studies were used to calculate an IC50 value (concentration of drug that inhibits cell growth by 50 percent of control) for each compound.
# (§4) For single agent and combination studies, data from each experiment was collected and expressed as % Cell Growth using the following calculation: % Cell Growth=(ftest/fvehicle)×100
# (§5) Where test is the fluorescence of the tested sample, and fvehicle is the fluorescence of the vehicle in which the drug is dissolved. Dose response graphs and IC50 values were generated using Prism 6 software (GraphPad) using the following equation: Y=(Top-Bottom)/(1+10^((logIC^50^-X)-HillSlope))
# H1975 = conditions: for pIC50: Homo sapiens, NCI-H1975, H1975, LUNG, NSCLC, 72 hours
# Description: as §1, §2, §3, §4, §5
# H23 = conditions: for pIC50: Homo sapiens, NCI-H23, H23, LUNG, NSCLC, 72 hours
# Description: as §1, §2, §3, §4, §5
# H358 = conditions: for pIC50: Homo sapiens, NCI-H358, H358, LUNG, NSCLC, 72 hours
# Description: as §1, §2, §3, §4, §5
# H522 = conditions: for pIC50: Homo sapiens, NCI-H522, H522, LUNG, NSCLC, 72 hours
# Description: as §1, §2, §3, §4, §5
# HepG2 = conditions: for pIC50: Homo sapiens, HepG2, LIVER, HCC, 72 hours
# Description: as §1, §2, §3, §4, §5
# Hs852T = conditions: for pIC50: Hs852T, MELANOMA, 72 hours
# Description: as §1, §2, §3, §4, §5
# J1M-1 = conditions: for pIC50: J1M-1, HEMATOPIETIC, MM, 72 hours
# Description: as §1, §2, §3, §4, §5
# K562 = conditions: for pIC50: Homo sapiens, K562, HEMATOPIETIC, CML, 72 hours
# Description: as §1, §2, §3, §4, §5
# MCF7 = conditions: for pIC50: Homo sapiens, MCF7, BREAST, ER + BCC, 72 hours
# Description: as §1, §2, §3, §4, §5
# MDA-MB-157 = conditions: for pIC50: Homo sapiens, MDA-MB-157, BREAST, Medullary Carcinoma, 72 hours
# Description: as §1, §2, §3, §4, §5
# MFE296 = conditions: for pIC50: Homo sapiens, MFE-296, MFE296, ENDOMETRIAL, Endometrial, 72 hours
# Description: as §1, §2, §3, §4, §5
# MM1.S = conditions: for pIC50: Homo sapiens, MM1.S, HEMATOPIETIC, MM, 72 hours
# Description: as §1, §2, §3, §4, §5
# MiaPaCa = conditions: for pIC50: Homo sapiens, MIA PaCa-2, MiaPaCa, PANCREAS, Pancreatic, 72 hours
# Description: as §1, §2, §3, §4, §5
# NCI-H1963 = conditions: for pIC50: Homo sapiens, NCI-H1963, LUNG, Carcinoma, 72 hours
# Description: as §1, §2, §3, §4, §5
# Nalm-6 = conditions: for pIC50: Homo sapiens, Nalm-6, HEMATOPIETIC, ALL, 72 hours
# Description: as §1, §2, §3, §4, §5
# OCI-Ly3 = conditions: for pIC50: Homo sapiens, OCI-Ly3, HEMATOPIETIC, DLBCL, 72 hours
# Description: as §1, §2, §3, §4, §5
# Panc-1 = conditions: for pIC50: Homo sapiens, Panc-1, PANCREAS, Pancreatic, 72 hours
# Description: as §1, §2, §3, §4, §5
# RKO = conditions: for pIC50: Homo sapiens, RKO, COLON, CRC, 72 hours
# Description: as §1, §2, §3, §4, §5
# RPMI-8226 = conditions: for pIC50: Homo sapiens, RPMI-8226, HEMATOPIETIC, MM, 72 hours
# Description: as §1, §2, §3, §4, §5
# RXF-393 = conditions: for pIC50: Homo sapiens, RXF-393, RENAL, RCC, 72 hours
# Description: as §1, §2, §3, §4, §5
# Raji = conditions: for pIC50: Homo sapiens, Raji, HEMATOPIETIC, Burkitt’s, 72 hours
# Description: as §1, §2, §3, §4, §5
# SK-Hep-1 = conditions: for pIC50: Homo sapiens, SK-HEP1, SK-Hep-1, LIVER, HCC, 72 hours
# Description: as §1, §2, §3, §4, §5
# SKUT-1 = conditions: for pIC50: Homo sapiens, SK-UT-1, SKUT-1, ENDOMETRIAL, Uterine, 72 hours
# Description: as §1, §2, §3, §4, §5
# YAPC = conditions: for pIC50: Homo sapiens, YAPC, PANCREAS, Pancreatic, 72 hours
# Description: as §1, §2, §3, §4, §5
smiles,measurement,setting,value
"CCC(C(=O)Nc1ncc(C(=O)NO)s1)c1ccc(OC)cc1 (racemic) [#1, N-hydroxy-2-(2-(4-methoxyphenyl)butanamido)thiazole-5-carboxamide]",pIC50,Capan-2,6.44
same,pIC50,H1975,6.94
same,pIC50,H23,7.12
same,pIC50,H358,6.80
same,pIC50,H522,6.75
same,pIC50,HepG2,6.67
same,pIC50,Hs852T,6.31
same,pIC50,J1M-1,7.33
same,pIC50,K562,6.84
same,pIC50,MCF7,7.41
same,pIC50,MDA-MB-157,6.77
same,pIC50,MFE296,7.28
same,pIC50,MM1.S,7.48
same,pIC50,MiaPaCa,7.29
same,pIC50,NCI-H1963,6.71
same,pIC50,Nalm-6,7.59
same,pIC50,OCI-Ly3,7.19
same,pIC50,Panc-1,6.20
same,pIC50,RKO,6.57
same,pIC50,RPMI-8226,7.51
same,pIC50,RXF-393,6.40
same,pIC50,Raji,6.98
same,pIC50,SK-Hep-1,6.43
same,pIC50,SKUT-1,6.64
same,pIC50,YAPC,6.36
"CC[C@H](C(=O)Nc1ncc(C(=O)NO)s1)c1ccc(OC)cc1 [#1a, (S)—N-hydroxy-2-(2-(4-methoxyphenyl)butanamido)thiazole-5-carboxamide]",pIC50,Capan-2,6.87
same,#1/#1a,"Capan-2; ratio of IC50, Capan-2",2.67
same,#1b/#1a,"Capan-2; ratio of IC50, Capan-2",7.13
same,pIC50,H1975,7.40
same,#1/#1a,"H1975; ratio of IC50, H1975",2.85
same,#1b/#1a,"H1975; ratio of IC50, H1975",9.95
same,pIC50,H23,7.33
same,#1/#1a,"H23; ratio of IC50, H23",1.62
same,#1b/#1a,"H23; ratio of IC50, H23",9.02
same,pIC50,H358,7.16
same,#1/#1a,"H358; ratio of IC50, H358",2.29
same,#1b/#1a,"H358; ratio of IC50, H358",8.09
same,pIC50,H522,6.94
same,#1/#1a,"H522; ratio of IC50, H522",1.55
same,#1b/#1a,"H522; ratio of IC50, H522",8.5
same,pIC50,HepG2,7.12
same,#1/#1a,"HepG2; ratio of IC50, HepG2",2.83
same,#1b/#1a,"HepG2; ratio of IC50, HepG2",8.3
same,pIC50,Hs852T,7.27
same,#1/#1a,"Hs852T; ratio of IC50, Hs852T",9.07
same,#1b/#1a,"Hs852T; ratio of IC50, Hs852T",22.96
same,pIC50,J1M-1,7.59
same,#1/#1a,"J1M-1; ratio of IC50, J1M-1",1.81
same,#1b/#1a,"J1M-1; ratio of IC50, J1M-1",8.42
same,pIC50,K562,7.11
same,#1/#1a,"K562; ratio of IC50, K562",1.86
same,#1b/#1a,"K562; ratio of IC50, K562",5.1
same,pIC50,MCF7,7.68
same,#1/#1a,"MCF7; ratio of IC50, MCF7",1.86
same,#1b/#1a,"MCF7; ratio of IC50, MCF7",7.52
same,pIC50,MDA-MB-157,7.05
same,#1/#1a,"MDA-MB-157; ratio of IC50, MDA-MB-157",1.9
same,#1b/#1a,"MDA-MB-157; ratio of IC50, MDA-MB-157",6.27
same,pIC50,MFE296,7.46
same,#1/#1a,"MFE296; ratio of IC50, MFE296",1.49
same,#1b/#1a,"MFE296; ratio of IC50, MFE296",5.83
same,pIC50,MM1.S,7.92
same,#1/#1a,"MM1.S; ratio of IC50, MM1.S",2.75
same,#1b/#1a,"MM1.S; ratio of IC50, MM1.S",5.92
same,pIC50,MiaPaCa,7.46
same,#1/#1a,"MiaPaCa; ratio of IC50, MiaPaCa",1.46
same,#1b/#1a,"MiaPaCa; ratio of IC50, MiaPaCa",8.26
same,pIC50,NCI-H1963,7.59
same,#1/#1a,"NCI-H1963; ratio of IC50, NCI-H1963",7.54
same,#1b/#1a,"NCI-H1963; ratio of IC50, NCI-H1963",15.65
same,pIC50,Nalm-6,7.96
same,#1/#1a,"Nalm-6; ratio of IC50, Nalm-6",2.36
same,#1b/#1a,"Nalm-6; ratio of IC50, Nalm-6",8.27
same,pIC50,OCI-Ly3,7.46
same,#1/#1a,"OCI-Ly3; ratio of IC50, OCI-Ly3",1.86
same,#1b/#1a,"OCI-Ly3; ratio of IC50, OCI-Ly3",4.86
same,pIC50,Panc-1,6.52
same,#1/#1a,"Panc-1; ratio of IC50, Panc-1",2.09
same,#1b/#1a,"Panc-1; ratio of IC50, Panc-1",8.85
same,pIC50,RKO,6.84
same,#1/#1a,"RKO; ratio of IC50, RKO",1.84
same,#1b/#1a,"RKO; ratio of IC50, RKO",9.37
same,pIC50,RPMI-8226,7.85
same,#1/#1a,"RPMI-8226; ratio of IC50, RPMI-8226",2.21
same,#1b/#1a,"RPMI-8226; ratio of IC50, RPMI-8226",9.21
same,pIC50,RXF-393,6.95
same,#1/#1a,"RXF-393; ratio of IC50, RXF-393",3.52
same,#1b/#1a,"RXF-393; ratio of IC50, RXF-393",7.82
same,pIC50,Raji,7.44
same,#1/#1a,"Raji; ratio of IC50, Raji",2.92
same,#1b/#1a,"Raji; ratio of IC50, Raji",7.83
same,pIC50,SK-Hep-1,6.83
same,#1/#1a,"SK-Hep-1; ratio of IC50, SK-Hep-1",2.51
same,#1b/#1a,"SK-Hep-1; ratio of IC50, SK-Hep-1",6.71
same,pIC50,SKUT-1,6.67
same,#1/#1a,"SKUT-1; ratio of IC50, SKUT-1",1.07
same,#1b/#1a,"SKUT-1; ratio of IC50, SKUT-1",5.86
same,pIC50,YAPC,6.67
same,#1/#1a,"YAPC; ratio of IC50, YAPC",2.03
same,#1b/#1a,"YAPC; ratio of IC50, YAPC",9.13
"CC[C@@H](C(=O)Nc1ncc(C(=O)NO)s1)c1ccc(OC)cc1 [#1b, (R)—N-hydroxy-2-(2-(4-methoxyphenyl)butanamido)thiazole-5-carboxamide]",pIC50,Capan-2,6.01
same,pIC50,H1975,6.40
same,pIC50,H23,6.37
same,pIC50,H358,6.25
same,pIC50,H522,6.01
same,pIC50,HepG2,6.20
same,pIC50,Hs852T,5.91
same,pIC50,J1M-1,6.66
same,pIC50,K562,6.40
same,pIC50,MCF7,6.80
same,pIC50,MDA-MB-157,6.25
same,pIC50,MFE296,6.69
same,pIC50,MM1.S,7.15
same,pIC50,MiaPaCa,6.54
same,pIC50,NCI-H1963,6.39
same,pIC50,Nalm-6,7.04
same,pIC50,OCI-Ly3,6.77
same,pIC50,Panc-1,5.57
same,pIC50,RKO,5.87
same,pIC50,RPMI-8226,6.89
same,pIC50,RXF-393,6.05
same,pIC50,Raji,6.55
same,pIC50,SK-Hep-1,6.00
same,pIC50,SKUT-1,5.90
same,pIC50,YAPC,5.71
